Measurements as given in patent US20180296559A1, “TREATMENT OF AIRWAY SMOOTH MUSCLE DYSFUNCTION” (priority 2016, published 2018).

Tests used:
[1] = system: wild-type mice; experiment: In vivo airway resistance following methacholine challenge; conditions: 100 μl of 5 mM, intraperitoneal, daily for 3 days, vs vehicle
Description: FIG. 3. In vivo treatment with NVP-TAE684 decreases cholinergic induced airway hyper-responsiveness. Mice were pretreated with control vehicle (DMSO, black circles) or NVP-TAE684 (grey circles) for 3 days (n=10 animals per group). Airway resistance following methacholine treatment was then determined. Data are shown as mean values with SEM and are fitted with a four-parameter logistic regression algorithm (solid line).
Measurement of in vivo airway resistance. WT mice were pretreated with either PYK2 inhibitor NVP-TAE684 (100 μl of 5 mM, 1% DMSO) or vehicle (1% DMSO) was given via intra-peritoneal injections daily for 3 days prior and including the day of pulmonary measurements. Mice were anesthetized with ketamine (50 or 100 mg/kg) and xylazine (0-10 mg/kg). Following tracheotomy, an 18-gauge cannula was inserted and securely tied with 4.0 braided silk. The animals were then mechanically ventilated with a computer-controlled small-animal ventilator (FlexiVent, SCIREQ, Montreal, Quebec) using a tidal volume of 8 mL/kg at a rate of 180 breaths/min and PEEP of 3.5 cm H2O. Pulmonary resistance was measured by the computer controlled ventilator by interrupting ventilation and imposing broadband low-frequency oscillatory waveforms and then resuming ventilation. […]

[2] = system: tracheal airway smooth muscle strips; experiment: Airway smooth muscle strip isometric force generation following acetylcholine; assay type: cell-based, pig
Description: FIG. 2. NVP-TAE684 decreases airway smooth muscle force generation. Wild-type airway smooth muscle strip isometric force generation following acetylecholine treatment in muscle strips pretreated with control vehicle (DMSO, black circles) or NVP-TAE684 (grey circles) (n=5 animals per group). Data are shown as mean values with SEM and are fitted with a four-parameter logistic regression algorithm (solid line).
Airway smooth muscle tissue and cells. Trachea from newborn WT […] or CFTR^−/− pigs was excised and placed in modified Krebs Solution containing (mM): 120.8 NaCl, 5.9 KCl, 0.2 CaCl2, 1.2 MgCl2, 1.2 NaH2PO4, 2 NaHCO3, 11 d-glucose, and 10 HEPES, pH 7.4. The trachealis muscle was dissected by removing the cartilage and epithelial layers. For force measurements, strips of trachealis smooth muscle were hung in a tissue perfusion system (Radnoti LLC, Monrovia, Calif.). For cell isolation, the remaining medial layers were minced and digested using a papain dissociation system (Worthington, Lakewood, N.J.) based upon previous studies (10). The minced smooth muscle was suspended in Earle's balanced salt solution (EBSS) containing papain (10 U/ml) and DNase (1000 U/ml) and incubated at 37° C. for 1 hr. Collagenase (0.5mg/m1) was added and after 1 hr the mixture triturated. Primary cells were grown to confluence in a 1:1 mixture of DMEM and Ham's F12 on fibrinogen-coated 6-well plates. All solutions contained 100 U/ml penicillin and 0.1 mg/ml streptomycin. Primary culture cells were allowed to grow for 8-10 d until confluent. […]
Measurement of airway smooth muscle force generation. […] The contractile activity was recorded with Grass isometric force transducers and amplifiers connected to a Biopac data acquisition system (Biopac Systems, Goleta, Calif.). […] The smooth muscle force from NVP-TAE684 or DMSO pretreated strips was determined by obtaining concentration-response curves to acetylcholine (10^−9 to 10^−2 M) in the muscle bath. […]

[3] = system: wild-type mice; experiment: Morphologic analysis of histological sections of treated mice; assay type: in vivo
[4] = system: porcine precision cut lung slices; experiment: Airway contraction in precision cut lung slices in response to methacholine; assay type: cell-based; conditions: WT newborn pig lung slices pretreated overnight with 10 μM compound vs DMSO
Description: FIG. 1. NVP-TAE684 decreases airway contraction in porcine precision cut lung slices. Percent airway lumen area contraction in response to methacholine in porcine precision cut lung slices pretreated with control vehicle (DMSO, black circles) or NVP-TAE684 (grey circles), normalized to maximal contractile response (n=6 animals per group). Data are shown as mean values with SEM and are fitted with a four-parameter logistic regression algorithm (solid line).
Precision cut lung slice preparation. Precision cut lung slices were isolated as previously described (11) from wild type newborn pigs. Lung slice culture media consisted of Dulbecco's Modified Eagle Medium (Gibco, Big Cabin, Okla.), 10% fetal bovine serum (Gibco, Big Cabin, Okla.), 1% penicillin-streptomycin (5,000 U/mL, Gibco, Big Cabin, Okla.), and 0.1% gentamicin (50 mg/mL, Gibco, Big Cabin, Okla.).
For the porcine lung slice studies, the tracheal bronchus from collected tracheal lobes was cannulated with a 24 G IV catheter (BD Medical) and a tight seal was created using suture. The tracheal lobe was instilled with approximately 10 mL of 2% UltraPure Low Melting Point agarose (Invitrogen, Carlsbad, Calif.) solution and cooled at −20° C. for 30 min. […] For all PCLS experiments, maximal airway contraction was analyzed for each dose by lumen area measurements performed in ImageJ (NIH). […]

[5] = molecular target: Recombinant human PYK2 (Homo sapiens, UniProt Q14289); experiment: ADP-based phosphatase-coupled kinase assay (malachite green); assay type: biochemical; conditions: 10, 25, or 100 μM compound vs DMSO; PYK2 0.5 and 2 μg/ml
Recombinant human PYK2, sequence (Q14289 whole entry): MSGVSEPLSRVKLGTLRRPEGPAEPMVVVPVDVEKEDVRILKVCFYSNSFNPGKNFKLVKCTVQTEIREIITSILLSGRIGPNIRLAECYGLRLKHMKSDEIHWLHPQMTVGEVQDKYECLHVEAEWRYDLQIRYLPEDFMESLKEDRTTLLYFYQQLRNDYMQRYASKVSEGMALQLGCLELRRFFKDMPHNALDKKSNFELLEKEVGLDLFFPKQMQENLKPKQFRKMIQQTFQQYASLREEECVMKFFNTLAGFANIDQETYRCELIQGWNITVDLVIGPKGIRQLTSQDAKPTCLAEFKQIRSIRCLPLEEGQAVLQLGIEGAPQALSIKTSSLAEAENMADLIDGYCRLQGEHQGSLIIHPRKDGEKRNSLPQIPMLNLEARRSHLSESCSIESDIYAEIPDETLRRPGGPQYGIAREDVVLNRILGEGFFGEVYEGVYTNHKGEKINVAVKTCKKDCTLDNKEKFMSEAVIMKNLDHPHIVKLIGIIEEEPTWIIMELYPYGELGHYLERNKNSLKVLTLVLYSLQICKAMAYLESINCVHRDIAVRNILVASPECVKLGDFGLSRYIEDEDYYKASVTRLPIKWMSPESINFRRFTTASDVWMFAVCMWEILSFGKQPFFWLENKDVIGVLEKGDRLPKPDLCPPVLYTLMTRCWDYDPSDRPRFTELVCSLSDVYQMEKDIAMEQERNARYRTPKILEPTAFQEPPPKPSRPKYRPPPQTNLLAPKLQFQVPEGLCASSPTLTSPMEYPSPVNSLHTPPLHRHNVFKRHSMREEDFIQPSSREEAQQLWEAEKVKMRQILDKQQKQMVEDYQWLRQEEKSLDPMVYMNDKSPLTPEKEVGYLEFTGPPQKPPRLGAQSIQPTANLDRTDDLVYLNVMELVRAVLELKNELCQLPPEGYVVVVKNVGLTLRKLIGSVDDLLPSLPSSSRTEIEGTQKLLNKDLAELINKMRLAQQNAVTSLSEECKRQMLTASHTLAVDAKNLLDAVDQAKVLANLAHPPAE
Description: FIG. 4. Recombinant human PYK2 was treated with either DMSO or 10, 25, or 100 μM ceritinib. PYK2 activity was measured by using an ADP-based phosphatase-coupled kinase assay. ADP from PYK2 activity releases an inorganic phosphate via a coupling enzyme and is detected using malachite green reagent. The amount of inorganic phosphate released is proportional to the amount of ADP generated during the kinase reaction. Two concentrations of PYK2 (0.5 and 2 μg/ml) were tested.

[6] = pretreated with 10 μM compound vs DMSO

SMILES	respiratory response to inhaled methacholine (airway resistance) [1]	maximal force production ([2]; newborn WT pig tracheal muscle strips pretreated with 10 μM compound, acetylcholine dose response)	force generation in tracheal smooth muscle strips across all doses of acetylcholine [2, 6]	median effective concentrations of acetylcholine, compound-pretreated vs DMSO-pretreated strips [2, 6]	drug-induced toxicity in histological sections of heart, kidney, and liver ([3]; mouse, in vivo)	changes in epithelia, cartilage or airway smooth muscle layers (lung parenchyma, conducting airways, trachea sections) ([3]; treated mice vs vehicle control mice)	airway narrowing in response to increasing dosages of methacholine, measured by luminal area [4]	PYK-2 activity [5]
COc1cc(N2CCC(N3CCN(C)CC3)CC2)ccc1Nc1ncc(Cl)c(Nc2ccccc2S(=O)(=O)C(C)C)n1 [NVP-TAE684]	significantly decreased	40 mN	decreased force generation	no significant differences	no evidence of drug-induced toxicity	no significant changes	decreased the airway narrowing	
Cc1cc(Nc2ncc(Cl)c(Nc3ccccc3S(=O)(=O)C(C)C)n2)c(OC(C)C)cc1C1CCNCC1 [ceritinib]								dose-dependent decrease
